For 19 compounds, IC50 results are on record in patent US11878975B2, “Substituted indole compounds useful as TLR inhibitors” (BRISTOL-MYERS SQUIBB COMPANY, priority 2017, dated 2024).

Holding throughout (type): cell-based
One experiment has as its target T1, human TLR7 (Homo sapiens, UniProt Q9NYK1).
T1 construct: host or cells: HEK-Blue cells
T1 sequence (Q9NYK1 27-1049): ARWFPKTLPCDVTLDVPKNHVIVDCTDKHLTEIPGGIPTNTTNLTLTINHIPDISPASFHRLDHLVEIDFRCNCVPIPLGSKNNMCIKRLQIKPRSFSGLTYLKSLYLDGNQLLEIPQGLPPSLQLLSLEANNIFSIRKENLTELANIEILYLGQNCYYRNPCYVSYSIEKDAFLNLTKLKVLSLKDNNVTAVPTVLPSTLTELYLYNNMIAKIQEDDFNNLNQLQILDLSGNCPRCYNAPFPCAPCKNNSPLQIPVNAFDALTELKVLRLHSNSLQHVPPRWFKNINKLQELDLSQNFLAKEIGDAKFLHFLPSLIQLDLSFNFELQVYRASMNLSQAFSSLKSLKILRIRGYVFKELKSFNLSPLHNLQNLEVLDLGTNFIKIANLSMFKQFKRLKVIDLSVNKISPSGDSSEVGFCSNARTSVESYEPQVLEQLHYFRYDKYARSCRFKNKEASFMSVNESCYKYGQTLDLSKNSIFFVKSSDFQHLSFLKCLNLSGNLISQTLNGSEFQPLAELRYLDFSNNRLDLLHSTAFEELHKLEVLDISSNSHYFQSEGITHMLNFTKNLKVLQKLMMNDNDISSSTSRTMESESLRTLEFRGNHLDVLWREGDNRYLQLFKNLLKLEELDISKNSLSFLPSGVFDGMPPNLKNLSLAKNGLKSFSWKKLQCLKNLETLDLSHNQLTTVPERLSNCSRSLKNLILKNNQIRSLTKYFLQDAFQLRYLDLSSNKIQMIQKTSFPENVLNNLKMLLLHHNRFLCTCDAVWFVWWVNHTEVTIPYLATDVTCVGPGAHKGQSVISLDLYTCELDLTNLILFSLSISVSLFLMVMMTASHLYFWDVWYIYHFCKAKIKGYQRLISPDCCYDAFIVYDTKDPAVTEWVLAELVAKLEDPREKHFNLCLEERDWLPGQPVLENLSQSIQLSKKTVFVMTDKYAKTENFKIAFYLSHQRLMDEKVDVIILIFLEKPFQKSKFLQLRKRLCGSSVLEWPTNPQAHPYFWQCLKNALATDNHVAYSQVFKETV
In words: TLR7 inhibition reporter assay (HEK-Blue cells, SEAP reporter, gardiquimod stimulation). Conditions: HEK-Blue cells overexpressing human TLR7, SEAP reporter, gardiquimod 7.5 μM. Put shortly: (§1)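 SEAP readout after 22 h agonist exposure at 37 °C; final agonist levels were 7.5 μM gardiquimod (TLR7), 15.9 μM R848 (TLR8) and 5 nM ODN2006 (TLR9). Inhibitors, spanning 0.05 nM to 50 μM final, were applied 30 min beforehand.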
In general terms: A reporter such as luciferase makes a cellular process visible.

The target of a further experiment is T2, human TLR8 (Homo sapiens, UniProt Q9NR97).
T2 construct: host or cells: HEK-Blue cells
T2 sequence (Q9NR97 27-1041): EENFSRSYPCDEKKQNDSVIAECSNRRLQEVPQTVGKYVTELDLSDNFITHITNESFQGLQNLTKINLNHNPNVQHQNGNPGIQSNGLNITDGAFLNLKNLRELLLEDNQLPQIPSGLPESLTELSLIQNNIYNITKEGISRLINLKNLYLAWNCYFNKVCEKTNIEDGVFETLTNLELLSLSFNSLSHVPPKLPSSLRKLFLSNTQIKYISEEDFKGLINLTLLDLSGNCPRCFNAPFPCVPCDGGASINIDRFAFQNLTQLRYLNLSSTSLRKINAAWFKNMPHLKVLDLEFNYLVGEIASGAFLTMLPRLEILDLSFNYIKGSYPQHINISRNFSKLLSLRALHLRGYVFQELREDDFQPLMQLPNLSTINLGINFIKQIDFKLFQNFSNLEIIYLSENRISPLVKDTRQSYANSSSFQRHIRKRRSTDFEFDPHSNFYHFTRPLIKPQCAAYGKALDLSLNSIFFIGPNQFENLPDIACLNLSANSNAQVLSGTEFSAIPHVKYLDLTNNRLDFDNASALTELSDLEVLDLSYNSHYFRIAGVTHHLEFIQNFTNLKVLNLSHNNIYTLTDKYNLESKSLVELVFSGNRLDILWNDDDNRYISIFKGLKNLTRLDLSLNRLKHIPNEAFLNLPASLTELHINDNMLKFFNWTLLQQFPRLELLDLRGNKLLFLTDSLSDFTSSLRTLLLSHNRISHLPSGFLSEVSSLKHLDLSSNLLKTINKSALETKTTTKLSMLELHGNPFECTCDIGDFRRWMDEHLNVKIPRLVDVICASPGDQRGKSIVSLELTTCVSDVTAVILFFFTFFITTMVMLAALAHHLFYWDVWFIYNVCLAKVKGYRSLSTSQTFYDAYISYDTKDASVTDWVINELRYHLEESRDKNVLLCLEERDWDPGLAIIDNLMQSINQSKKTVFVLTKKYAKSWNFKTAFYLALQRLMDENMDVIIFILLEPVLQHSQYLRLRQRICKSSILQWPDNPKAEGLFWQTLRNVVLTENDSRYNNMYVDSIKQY
Briefly: TLR8 inhibition reporter assay (HEK-Blue cells, SEAP reporter, R848 stimulation). Conditions: HEK-Blue cells overexpressing human TLR8, SEAP reporter, R848 15.9 μM. Put shortly:
as §1

In another experiment the target is T3, human TLR9 (Homo sapiens, UniProt Q9NR96).
T3 construct: host or cells: HEK-Blue cells
T3 sequence (Q9NR96 26-1032): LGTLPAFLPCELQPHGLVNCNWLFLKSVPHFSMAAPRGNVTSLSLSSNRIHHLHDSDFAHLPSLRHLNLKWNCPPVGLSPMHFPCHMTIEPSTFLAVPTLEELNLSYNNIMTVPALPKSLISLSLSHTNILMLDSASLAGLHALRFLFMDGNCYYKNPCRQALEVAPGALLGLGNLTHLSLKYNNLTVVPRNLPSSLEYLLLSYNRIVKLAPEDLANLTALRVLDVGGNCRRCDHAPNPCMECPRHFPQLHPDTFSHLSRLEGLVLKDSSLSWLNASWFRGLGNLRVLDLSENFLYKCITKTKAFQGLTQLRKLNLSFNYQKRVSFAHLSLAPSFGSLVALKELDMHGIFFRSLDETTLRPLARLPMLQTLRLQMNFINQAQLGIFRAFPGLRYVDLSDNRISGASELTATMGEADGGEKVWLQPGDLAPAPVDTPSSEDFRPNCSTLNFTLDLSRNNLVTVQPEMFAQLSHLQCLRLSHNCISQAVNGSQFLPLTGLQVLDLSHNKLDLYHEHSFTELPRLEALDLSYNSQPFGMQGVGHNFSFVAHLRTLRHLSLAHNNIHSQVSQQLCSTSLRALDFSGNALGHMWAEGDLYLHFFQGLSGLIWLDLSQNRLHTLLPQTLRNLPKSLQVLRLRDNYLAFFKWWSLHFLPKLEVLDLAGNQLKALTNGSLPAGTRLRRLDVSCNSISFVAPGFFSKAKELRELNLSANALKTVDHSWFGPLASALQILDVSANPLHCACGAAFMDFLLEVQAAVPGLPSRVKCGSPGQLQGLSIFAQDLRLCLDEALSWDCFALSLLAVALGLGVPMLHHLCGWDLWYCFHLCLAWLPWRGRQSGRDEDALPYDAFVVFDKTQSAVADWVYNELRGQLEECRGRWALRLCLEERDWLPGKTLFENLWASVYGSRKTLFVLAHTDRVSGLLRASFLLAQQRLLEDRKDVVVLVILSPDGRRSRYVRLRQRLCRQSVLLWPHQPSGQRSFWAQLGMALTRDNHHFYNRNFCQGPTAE
Briefly: TLR9 inhibition reporter assay (HEK-Blue cells, SEAP reporter, ODN2006 stimulation). Conditions: HEK-Blue cells overexpressing human TLR9, SEAP reporter, ODN2006 5 nM. An outline of the steps: as §1

The IC50 is the concentration at which inhibition is half-maximal. Consider `CNC(=O)CN1CC(c2ccc3[nH]c(-c4cn5ncnc5c(C)c4C)c(C(C)C)c3c2)OCC1(C)C` (stereo not drawn) [Example 388], for which the IC50 at human TLR7 was 37 nM; against human TLR8, 41 nM; on human TLR9 it was above 50000 nM.
In the case of `CNC(=O)CN1CC(c2ccc3[nH]c(-c4cn5ncnc5c(C)c4C)c(C(C)C)c3c2)OCC1(C)C` (stereo not drawn) [Example 389], the values for the IC50 against human TLR7, on human TLR8 and on human TLR9 were 22 nM, 51 nM and above 50000 nM, respectively.
Take `CCc1c(-c2ccc(OC)c(OC)c2)[nH]c2ccc(CN3CCNCC3)cc12` [Example 390, 2-(3,4-dimethoxyphenyl)-3-ethyl-5-(piperazin-1-ylmethyl)-1H-indole]: the IC50 was 138 nM against human TLR7, 73 nM against human TLR8 and 5880 nM against human TLR9.
For `CCc1c(-c2ccc(OC)c(OC)c2)[nH]c2ccc(CN3CC4CNCC4C3)cc12` (stereo not drawn) [Example 391], the IC50 on human TLR7 was 164 nM; on human TLR8, 354 nM; on human TLR9, 527 nM.
Taken in the same sequence, the figures for `CCc1c(-c2ccc(OC)c(OC)c2)[nH]c2ccc(CN3CC4CN(C(C)C)CC4C3)cc12` (stereo not drawn) [Example 392, 2-(3,4-dimethoxyphenyl)-3-ethyl-5-{[5-(propan-2-yl)-octahydropyrrolo[3,4-c]pyrrol-2-yl]methyl}-1H-indole] were 2390 nM, 553 nM and 1180 nM.
Taken in the same sequence, the figures for `Cc1cc(-c2[nH]c3ccc(CCN4CCOCC4)cc3c2C(C)C)cc(C)n1` [Example 393, 2-(2,6-dimethylpyridin-4-yl)-5-[2-(morpholin-4-yl)ethyl]-3-(propan-2-yl)-1H-indole] were 18 nM, 9.3 nM and 883 nM.
For the compound `CCc1c(-c2ccnc(C)c2)[nH]c2ccc(CN)cc12` [Example 394, [3-ethyl-2-(2-methylpyridin-4-yl)-1H-indol-5-yl]methanamine], the IC50 on human TLR7 was determined as 2560 nM; at human TLR8 it was 1080 nM; against human TLR9 it was 2590 nM.
With `CCc1c(-c2ccnc(C)c2)[nH]c2ccc(CNC(=O)CCN(C)C)cc12` [Example 395, 3-(dimethylamino)-N-{[3-ethyl-2-(2-methylpyridin-4-yl)-1H-indol-5-yl]methyl}propanamide], the values for the IC50 against human TLR7, against human TLR8 and against human TLR9 were 966 nM, 182 nM and 823 nM, respectively.
With `Cc1cc(-c2[nH]c3ccc(CC4CCCN4)cc3c2C(C)C)cn2ncnc12` (stereo not drawn) [Example 398, 2-{8-methyl-[1,2,4]triazolo[1,5-a]pyridin-6-yl}-3-(propan-2-yl)-5-[(pyrrolidin-2-yl)methyl]-1H-indole], the IC50 against human TLR7 worked out at 1 nM; on human TLR8, 3.5 nM; against human TLR9, 1580 nM.
Taken in the same sequence, the figures for `Cc1c(-c2[nH]c3ccc(CC4CNC4)cc3c2C(C)C)cn2ncnc2c1C` [Example 399, 5-[(azetidin-3-yl)methyl]-2-{7,8-dimethyl-[1,2,4]triazolo[1,5-a]pyridin-6-yl}-3-(propan-2-yl)-1H-indole] were 11 nM, 9.8 nM and 1960 nM.
With `Cc1c(-c2[nH]c3ccc(CC4CN(CC(=O)N(C)C)C4)cc3c2C(C)C)cn2ncnc2c1C` [Example 400], the IC50 was found to be 18 nM on human TLR7, 5.1 nM against human TLR8 and 2820 nM at human TLR9.
The matching figures for `Cc1cc(-c2[nH]c3ccc(CCN4CCS(=O)(=O)CC4)cc3c2C(C)C)cc(C)n1` [Example 401]: 27 nM, 86 nM and 3430 nM.
Take `Cc1cc(-c2[nH]c3ccc(CCN4CCS(=O)(=O)CC4)cc3c2C(C)C)cn(C)c1=O` [Example 402]: the IC50 at human TLR7 was 108 nM; at human TLR8 it was 74 nM; against human TLR9, above 50000 nM.
Regarding `Cc1cc(-c2[nH]c3ccc(CCN4CCOCC4)cc3c2C(C)C)cn(C)c1=O` [Example 403], the IC50 against human TLR7 is 36 nM; against human TLR8, 7.5 nM; at human TLR9 it was 23000 nM.
Turning to `Cc1cc(-c2[nH]c3ccc(CCN4CCCC(F)(F)C4)cc3c2C(C)C)cn(C)c1=O` [Example 404], the IC50 against human TLR7 was 50 nM; against human TLR8 it was 31 nM; against human TLR9, above 50000 nM.
In the case of `Cc1cc(-c2[nH]c3ccc(CCN4CCCC4)cc3c2C(C)C)cn(C)c1=O` [Example 405], the IC50 amounted to 35 nM against human TLR7, 8.4 nM at human TLR8 and 13700 nM against human TLR9.
Taken in the same sequence, the figures for `Cc1cc(-c2[nH]c3ccc(CCN4CCCC(F)C4)cc3c2C(C)C)cn(C)c1=O` (stereo not drawn) [Example 406] were 14 nM, 3.2 nM and 8810 nM.
The matching figures for `Cc1cc(-c2[nH]c3ccc(CCN4CCC(F)CC4)cc3c2C(C)C)cn(C)c1=O` [Example 407]: 9 nM, 1.4 nM and 13600 nM.
The matching figures for `Cc1cc(-c2[nH]c3ccc(CCN4CC[C@H](F)C4)cc3c2C(C)C)cn(C)c1=O` [Example 408]: 15 nM, 2.3 nM and 13000 nM.
